In ChEMBL document CHEMBL5107999, “Synthesis and biological evaluation of 4-hydroxy-methylpiperidinyl-N-benzyl-acylarylhydrazone hybrids designed as novel multifunctional drug candidates for Alzheimer's disease” (Bioorg Med Chem, 2022):
Activity calls are given as the source filed them. No cut-off for these calls is given here.

Key:
Acetylcholinesterase [1] = biological target: T1, Acetylcholinesterase (Electrophorus electricus, UniProt O42275); assay: Inhibition of Electrophorus electricus AchE using acetylthiocholine iodide as substrate preincubated for 10 mins followed by substrate addition by spectrophotometric based Ellman's method
T1 sequence (O42275 whole entry): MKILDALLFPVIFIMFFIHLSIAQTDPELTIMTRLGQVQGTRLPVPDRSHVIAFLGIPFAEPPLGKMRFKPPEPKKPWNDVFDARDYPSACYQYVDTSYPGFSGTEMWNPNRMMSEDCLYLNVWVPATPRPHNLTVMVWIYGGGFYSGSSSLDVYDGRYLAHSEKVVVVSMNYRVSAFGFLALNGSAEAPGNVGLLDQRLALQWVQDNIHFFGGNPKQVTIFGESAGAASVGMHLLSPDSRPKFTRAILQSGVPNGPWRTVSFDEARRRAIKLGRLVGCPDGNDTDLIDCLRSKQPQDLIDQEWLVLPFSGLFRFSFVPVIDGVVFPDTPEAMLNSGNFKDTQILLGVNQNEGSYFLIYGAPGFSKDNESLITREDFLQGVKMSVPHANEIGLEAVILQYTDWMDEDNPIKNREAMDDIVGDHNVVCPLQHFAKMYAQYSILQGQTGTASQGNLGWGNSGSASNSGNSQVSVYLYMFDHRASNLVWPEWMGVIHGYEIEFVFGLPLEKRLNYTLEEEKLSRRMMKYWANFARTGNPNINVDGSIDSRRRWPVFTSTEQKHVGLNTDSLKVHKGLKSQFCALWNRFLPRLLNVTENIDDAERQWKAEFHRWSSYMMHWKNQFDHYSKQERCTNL

Cholinesterase = Cholinesterase (Equus caballus, UniProt P81908); assay: Inhibition of equine serum BuChE using butyrylthiocholine as substrate preincubated for 10 mins followed by substrate addition by spectrophotometric based Ellman's method
Chain of Cholinesterase (P81908 whole entry): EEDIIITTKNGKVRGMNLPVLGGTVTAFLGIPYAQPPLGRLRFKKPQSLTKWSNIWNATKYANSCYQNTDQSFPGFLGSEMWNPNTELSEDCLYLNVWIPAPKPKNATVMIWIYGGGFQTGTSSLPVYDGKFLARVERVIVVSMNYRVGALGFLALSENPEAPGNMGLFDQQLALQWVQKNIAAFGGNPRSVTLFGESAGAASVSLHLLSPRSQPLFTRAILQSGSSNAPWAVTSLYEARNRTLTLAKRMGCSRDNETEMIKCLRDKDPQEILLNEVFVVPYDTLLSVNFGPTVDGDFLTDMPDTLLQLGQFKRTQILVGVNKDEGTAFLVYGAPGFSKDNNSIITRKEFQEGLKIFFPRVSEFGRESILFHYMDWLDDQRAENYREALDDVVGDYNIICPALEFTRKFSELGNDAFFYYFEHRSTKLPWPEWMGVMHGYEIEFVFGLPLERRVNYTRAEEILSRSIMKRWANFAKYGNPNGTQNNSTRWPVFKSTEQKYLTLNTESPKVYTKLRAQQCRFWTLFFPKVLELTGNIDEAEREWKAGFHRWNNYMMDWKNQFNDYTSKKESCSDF

[2] = Selectivity ratio, ratio of IC50 for equine serum BuChE to IC50 for Electrophorus electricus AchE
HT-29 = assay: Cytotoxicity against human HT-29 cells assessed as reduction in cell viability upto 30 uM incubated for 24 hrs by calcein/propidium iodide assay; assay type: toxicity, cell-based; conditions: ht-29, 24 h
SH-SY5Y [3] = assay: Cytotoxicity against human SH-SY5Y cells assessed as reduction in cell viability upto 40 uM incubated for 24 hrs by MTT assay; assay type: toxicity, cell-based
SH-SY5Y [4] = assay: Neuroprotective activity against t-BOOH induced neurotoxicity in human SH-SY5Y cells assessed as inhibition of ROS formation at 10 uM incubated for 30 mins by H2DCF-DA fluorescence assay; assay type: functional, cell-based
SH-SY5Y [5] = assay: Antioxidant activity against t-BOOH induced neurotoxicity in human SH-SY5Y cells at 10 uM; assay type: functional
Acetylcholinesterase [6] = biological target: T1, Acetylcholinesterase; assay: Inhibition of Electrophorus electricus AchE assessed as inhibition constant
SH-SY5Y [7] = assay: Cytotoxicity against human SH-SY5Y cells assessed as reduction in cell viability at 20 to 80 uM incubated for 24 hrs by MTT assay; assay type: toxicity, cell-based; conditions: dose 20-80 µM
SH-SY5Y [8] = assay: Neuroprotective activity against t-BOOH induced neurotoxicity in human SH-SY5Y cells assessed as inhibition of ROS formation at 2.5 to 10 uM incubated for 30 mins by H2DCF-DA fluorescence assay; assay type: functional, cell-based; conditions: dose 2.5-10 µM
SH-SY5Y [9] = assay: Antioxidant activity against t-BOOH induced neurotoxicity in human SH-SY5Y cells; assay type: functional, cell-based
SH-SY5Y [10] = assay: Neuroprotective activity against t-BOOH induced neurotoxicity in human SH-SY5Y cells assessed as increase in cell viability at 2.5 to 10 uM incubated for 4 hrs by MTT assay; assay type: functional, cell-based; conditions: dose 2.5-10 µM
SH-SY5Y [11] = assay: Neuroprotective activity against amyloid beta (1 to 42) induced neurotoxicity in human SH-SY5Y cells assessed as increase in cell viability at 5 to 10 uM incubated for 4 hrs by MTT assay; assay type: functional, cell-based; conditions: dose 5-10 µM
[12] = biological target: Amyloid-beta precursor protein (Homo sapiens) (UniProt P05067); assay: Inhibition of amyloid beta (1 to 42) (unknown origin) self aggregation at 75 uM by Thioflavin T based fluorescence assay
Chain of Amyloid-beta precursor protein (Homo sapiens) (P05067 whole entry): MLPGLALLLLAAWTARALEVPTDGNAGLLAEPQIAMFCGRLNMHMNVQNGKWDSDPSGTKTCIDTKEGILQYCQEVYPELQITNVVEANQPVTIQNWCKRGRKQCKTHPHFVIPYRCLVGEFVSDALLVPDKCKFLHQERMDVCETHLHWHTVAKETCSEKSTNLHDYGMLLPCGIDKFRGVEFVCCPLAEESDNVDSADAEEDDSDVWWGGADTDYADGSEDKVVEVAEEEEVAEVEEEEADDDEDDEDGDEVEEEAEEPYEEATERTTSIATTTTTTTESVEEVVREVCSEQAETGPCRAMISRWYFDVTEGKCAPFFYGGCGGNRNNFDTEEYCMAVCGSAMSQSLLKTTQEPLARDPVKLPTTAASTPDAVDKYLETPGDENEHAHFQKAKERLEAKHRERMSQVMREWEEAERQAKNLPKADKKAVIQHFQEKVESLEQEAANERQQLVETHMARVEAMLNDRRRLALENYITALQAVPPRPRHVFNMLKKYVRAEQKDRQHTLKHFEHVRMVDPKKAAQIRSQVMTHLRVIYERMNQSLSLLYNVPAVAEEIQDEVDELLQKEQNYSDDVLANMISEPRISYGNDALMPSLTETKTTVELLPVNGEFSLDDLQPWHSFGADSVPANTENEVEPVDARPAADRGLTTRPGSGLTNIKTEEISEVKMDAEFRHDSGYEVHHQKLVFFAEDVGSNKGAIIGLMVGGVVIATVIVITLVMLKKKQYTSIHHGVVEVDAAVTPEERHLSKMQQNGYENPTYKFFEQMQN

[13] = biological target: Acetylcholinesterase (Electrophorus electricus) (UniProt O42275); assay: Inhibition of Electrophorus electricus AchE using acetylthiocholine iodide as substrate at 30 uM preincubated for 10 mins followed by substrate addition by spectrophotometric based Ellman's method
Chain of Acetylcholinesterase (Electrophorus electricus) (O42275 24-633 limits assumed): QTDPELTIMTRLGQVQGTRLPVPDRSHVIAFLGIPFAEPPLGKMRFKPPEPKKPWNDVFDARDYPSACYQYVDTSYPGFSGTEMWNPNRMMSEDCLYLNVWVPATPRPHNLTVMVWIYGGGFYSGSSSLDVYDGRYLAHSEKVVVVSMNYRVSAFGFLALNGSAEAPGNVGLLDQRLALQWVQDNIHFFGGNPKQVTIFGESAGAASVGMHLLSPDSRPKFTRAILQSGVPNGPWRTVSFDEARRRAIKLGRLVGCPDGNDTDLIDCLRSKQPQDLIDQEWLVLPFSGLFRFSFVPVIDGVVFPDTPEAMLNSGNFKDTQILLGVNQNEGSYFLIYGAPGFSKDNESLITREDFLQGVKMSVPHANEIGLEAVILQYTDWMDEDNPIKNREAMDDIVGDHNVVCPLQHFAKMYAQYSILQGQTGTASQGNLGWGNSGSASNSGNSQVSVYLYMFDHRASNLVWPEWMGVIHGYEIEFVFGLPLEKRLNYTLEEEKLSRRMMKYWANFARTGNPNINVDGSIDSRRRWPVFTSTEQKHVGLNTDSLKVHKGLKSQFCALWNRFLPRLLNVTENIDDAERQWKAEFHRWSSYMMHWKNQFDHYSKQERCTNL

SMILES	IC50 (Acetylcholinesterase [1])	IC50 (Cholinesterase)	Ratio IC50 [2]	Activity (HT-29)	Activity (SH-SY5Y [3])	Activity (SH-SY5Y [4])	inhibition at 10 µM (SH-SY5Y [5])	Ki (Acetylcholinesterase [6])	Activity (SH-SY5Y [7])	Activity (SH-SY5Y [8])	IC50 (SH-SY5Y [9])	Activity (SH-SY5Y [10])	Activity (SH-SY5Y [11])	inhibition [12]	inhibition [13]
O=C(N/N=C/c1cccc(O)c1)c1ccc(CN2CCC(CO)CC2)cc1	13.9 µM	> 30 µM	> 2.2	Non-Toxic	–	–	–	–	–	–	–	–	–	–	–
COc1ccccc1/C=N/NC(=O)c1ccc(CN2CCC(CO)CC2)cc1	13.5 µM	12.9 µM	1	Non-Toxic	–	–	–	–	–	–	–	–	–	–	–
O=C(N/N=C/c1cccc(Cl)c1)c1ccc(CN2CCC(CO)CC2)cc1	3.3 µM	49.8 µM	15	Non-Toxic	Non-Toxic	Active	46%	1.95 µM	–	–	–	–	–	–	–
COc1ccc(/C=N/NC(=O)c2ccc(CN3CCC(CO)CC3)cc2)cc1	15.3 µM	> 30 µM	> 2	Non-Toxic	–	–	–	–	–	–	–	–	–	–	–
O=C(N/N=C/c1ccccc1Cl)c1ccc(CN2CCC(CO)CC2)cc1	9 µM	12.9 µM	1.4	Non-Toxic	–	–	–	–	–	–	–	–	–	–	–
O=C(N/N=C/c1cccc(F)c1)c1ccc(CN2CCC(CO)CC2)cc1	8.2 µM	> 30 µM	> 3.6	Non-Toxic	–	–	–	–	–	–	–	–	–	–	–
O=C(N/N=C/c1ccc(N2CCCCC2)cc1)c1ccc(CN2CCC(CO)CC2)cc1	12 µM	> 30 µM	> 2.5	Non-Toxic	–	–	–	6.24 µM	Toxic	–	–	–	–	–	–
O=C(N/N=C/c1ccc(F)cc1)c1ccc(CN2CCC(CO)CC2)cc1	26.4 µM	> 30 µM	> 1.1	Non-Toxic	–	–	–	–	–	–	–	–	–	–	–
O=C(N/N=C/c1ccccc1O)c1ccc(CN2CCC(CO)CC2)cc1	5.9 µM	> 30 µM	> 5.1	Non-Toxic	–	–	67.1%	3.81 µM	Toxic	Active	7.45 µM	Active	Active	30%	–
O=C(N/N=C/c1ccc(O)cc1)c1ccc(CN2CCC(CO)CC2)cc1	25.1 µM	> 30 µM	> 1.2	Non-Toxic	–	–	–	–	–	–	–	–	–	–	45%
O=C(N/N=C/c1ccc(Cl)cc1)c1ccc(CN2CCC(CO)CC2)cc1	5.6 µM	> 30 µM	> 5.4	Non-Toxic	Non-Toxic	Active	24.5%	3.55 µM	–	–	–	–	–	–	–
O=C(N/N=C/c1ccccc1F)c1ccc(CN2CCC(CO)CC2)cc1	12 µM	> 30 µM	> 2.5	Non-Toxic	–	–	–	–	–	–	–	–	–	–	–
